This note sets out measurements from US20260374754A1, “N-((ISOQUINOLIN-6-YL)METHYL)-1H-PYRAZOLE-4-CARBOXAMIDE DERIVATIVES AS PLASMA KALLIKREIN INHIBITORS FOR THE TREATMENT OF HEREDITARY ANGIODEMA” (Takeda Pharmaceutical Company Limited, priority 2022, published 2026).

SMILES strings stand for the structures. Where a name gives a salt, the structure may show the parent alone.

Sequence of human activated kallikrein enzyme (P03952 391-638 limits assumed): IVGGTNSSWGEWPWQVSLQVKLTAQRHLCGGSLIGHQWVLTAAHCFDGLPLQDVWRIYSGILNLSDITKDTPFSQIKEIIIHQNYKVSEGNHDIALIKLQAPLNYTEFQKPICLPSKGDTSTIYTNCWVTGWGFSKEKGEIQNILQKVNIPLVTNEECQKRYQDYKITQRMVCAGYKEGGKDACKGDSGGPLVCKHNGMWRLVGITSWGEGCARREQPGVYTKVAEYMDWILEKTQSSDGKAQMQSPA
Sequence of human activated kallikrein enzyme (P03952 20-390 partner limits assumed): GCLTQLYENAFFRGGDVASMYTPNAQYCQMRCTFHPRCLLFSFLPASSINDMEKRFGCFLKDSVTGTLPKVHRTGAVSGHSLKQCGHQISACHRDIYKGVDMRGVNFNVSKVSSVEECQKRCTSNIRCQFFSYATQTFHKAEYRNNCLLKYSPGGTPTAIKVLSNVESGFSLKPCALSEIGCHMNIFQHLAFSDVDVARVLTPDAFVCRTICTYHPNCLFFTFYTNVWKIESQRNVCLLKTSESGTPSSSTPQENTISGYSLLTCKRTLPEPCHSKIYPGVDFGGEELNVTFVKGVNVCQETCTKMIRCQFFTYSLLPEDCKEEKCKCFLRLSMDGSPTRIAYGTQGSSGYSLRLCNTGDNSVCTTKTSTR

This assay deals with human activated kallikrein enzyme (Homo sapiens, UniProt P03952). The assay can be described thus: Inhibition of human activated plasma kallikrein, fluorogenic PFR-AMC substrate, 500 pM enzyme format. The format is biochemical. The conditions noted are these: 500 pM activated kallikrein; 300 μM PFR-AMC; 30 min preincubation; 10 min room temperature; pH 7.5; read-out: Primary Dose Response Assay: Average EC50. In a few lines:
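Using fluorogenic PFR-AMC at 300 μM, cleavage by 500 pM human activated kallikrein ran 10 min at room temperature, read at 460 nm emission (380 nm excitation). Enzyme and compounds were first preincubated 30 min in 20 mM Tris pH 7.5, 150 mM NaCl, 1 mM EDTA, 0.1% PEG-400, 0.1% Triton X-100.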
As for `CCOC(=O)Nc1nccc2c(C)c(CNc3cc(N(Cc4ccc(Cn5ccccc5=O)cc4)C(=O)OCC)ncn3)c(C)cc12` [Example I-481, ethyl (6-(((1-((ethoxycarbonyl)amino)-5,7-dimethylisoquinolin-6-yl)methyl)amino)pyrimidin-4-yl)(4-((2-oxopyridin-1(2H)-yl)methyl)benzyl)carbamate], the 50% effective concentration (EC50) is greater than 1000 nM.
Then `Cc1ccc2nc(Cn3cc(C(=O)NCc4c(C)cc5c(NC(=O)OC(C)C)nccc5c4C)cn3)cn2c1` [Example 6, isopropyl (5,7-dimethyl-6-((1-((6-methylimidazo[1,2-a]pyridin-2-yl)methyl)-1H-pyrazole-4-carboxamido)methyl)isoquinolin-1-yl)carbamate], with 10 to 100 nM.
With `Cc1cc2c(N)nccc2c(C)c1CNc1cc(NCc2ccc3c(-n4cccn4)cccc3c2)ncn1` [Example 246, N4-((5-(1H-pyrazol-1-yl)naphthalen-2-yl)methyl)-N6-((1-amino-5,7-dimethylisoquinolin-6-yl)methyl)pyrimidine-4,6-diamine] the figure was less than 1 nM; with `Cc1cc2c(N)nccc2c(C)c1CNc1ccc2cnc(Cc3ccc4ncc(Cl)cc4c3)n2c1` [Example 520, 6-(((3-((3-chloroquinolin-6-yl)methyl)imidazo[1,5-a]pyridin-6-yl)amino)methyl)-5,7-dimethylisoquinolin-1-amine], greater than 1000 nM.
With `Cc1cc2c(N)nccc2c(C)c1CNC(=O)c1cnn(Cc2cn3cc(Br)c(Cl)cc3n2)c1` [Example 149, N-((1-amino-5,7-dimethylisoquinolin-6-yl)methyl)-1-((6-bromo-7-chloroimidazo[1,2-a]pyridin-2-yl)methyl)-1H-pyrazole-4-carboxamide] the figure was less than 1 nM.
`Cc1cc2c(N)nccc2c(C)c1CNC(=O)c1cnn(Cc2cn3c(Cl)c(C4CC4)ccc3n2)c1` [Example 148, N-((1-amino-5,7-dimethylisoquinolin-6-yl)methyl)-1-((5-chloro-6-cyclopropylimidazo[1,2-a]pyridin-2-yl)methyl)-1H-pyrazole-4-carboxamide]: the EC50 was less than 1 nM.
For the compound `Cc1cc2c(N)nccc2c(C)c1CNC(=O)c1cnn(Cc2cc3ccc(Cl)cc3s2)c1` [Example 81, N-((1-amino-5,7-dimethylisoquinolin-6-yl)methyl)-1-((6-chlorobenzo[b]thiophen-2-yl)methyl)-1H-pyrazole-4-carboxamide], the EC50 was 1 to 10 nM.
With `Cc1cc2c(N)nccc2c(C)c1CNC(=O)c1cnn(Cc2cn3c(C#N)cccc3n2)c1` [Example 143, N-((1-amino-5,7-dimethylisoquinolin-6-yl)methyl)-1-((5-cyanoimidazo[1,2-a]pyridin-2-yl)methyl)-1H-pyrazole-4-carboxamide] the figure was less than 1 nM; with `Cc1cc2c(N)nccc2c(C)c1CNc1cc(NCc2cnc3ccccc3c2)ncn1` [Example 317, N^4-((1-amino-5,7-dimethylisoquinolin-6-yl)methyl)-N^6-(quinolin-3-ylmethyl)pyrimidine-4,6-diamine, formic acid salt], 1 to 10 nM.
Then `Cc1cc2c(N)nccc2c(C)c1CNC(=O)c1cnn(Cc2ccc(Cc3ccccn3)cc2)c1` [Example 165, N-((1-amino-5,7-dimethylisoquinolin-6-y1)methyl)-1-(4-(pyridin-2-ylmethyl)benzyl)-1H-pyrazole-4-carboxamide], with less than 1 nM; and `Cc1cc2c(N)nccc2c(C)c1CNc1cc(OCc2cnn(-c3ccccc3)c2)cnn1` [Example 442, 5,7-dimethyl-6-(((5-((1-phenyl-1H-pyrazol-4-yl)methoxy)pyridazin-3-yl)amino)methyl)isoquinolin-1-amine], with 1 to 10 nM.
Then `Cc1cnc2ccc(C(C)Oc3cnnc(NCc4c(C)cc5c(N)nccc5c4C)c3)cc2c1` (centres unmarked) [Example 419, 5,7-dimethyl-6-(((5-(1-(3-methylquinolin-6-yl)ethoxy)pyridazin-3-yl)amino)methyl)isoquinolin-1-amine], with less than 1 nM; and `Cc1cc2c(N)nccc2c(C)c1CNc1cc(NCc2ccc(OC3(C(=O)N(C)C)CC3)cc2)ncn1` [Example 357, 1-(4-( ((6-(((1-amino-5,7-dimethylisoquinolin-6-yl)methyl)amino)pyrimidin-4-yl)amino)methyl)phenoxy)-N,N-dimethylcyclopropane-1-carboxamide, formic acid salt], with 10 to 100 nM; and `Cc1cc2c(N)nccc2c(C)c1CN1C(=O)c2ncc(OCc3cn4cc(C5CC5)ccc4n3)cc21` [Example 494, 7-((1-amino-5,7-dimethylisoquinolin-6-yl)methyl)-4-((6-cyclopropylimidazo[1,2-a]pyridin-2-yl)methoxy)-2,7-diazabicyclo[4.2.0]octa-1,3,5-trien-8-one], with greater than 1000 nM.
For `Cc1cc2c(N)nccc2c(C)c1CNc1cc(C(F)c2cn3cc(C4CC4)ccc3n2)ncn1` (centres unmarked) [Example 529, 6-(((6-((6-cyclopropylimidazo[1,2-a]pyridin-2-yl)fluoromethyl)pyrimidin-4-yl)amino)methyl)-5,7-dimethylisoquinolin-1-amine], the concentration giving a half-maximal response (EC50) lay in the range of 1 to 10 nM.
Turning to `Cc1cc2c(N)nccc2c(C)c1CNC(=O)c1cnn(Cc2ccc(CC(=O)N(C)Cc3ccccc3)cc2)c1` [Example 220, N-((1-amino-5,7-dimethylisoquinolin-6-yl)methyl)-1-(4-(2-(benzyl(methyl)amino)-2-oxoethyl)benzyl)-1H-pyrazole-4-carboxamide], the half-maximal effective concentration (EC50) was in the range of 1 to 10 nM.
Then `Cc1cc2c(N)nccc2c(C)c1CNc1ccc2nnc(Cc3ccc4ncc(Cl)cc4c3)n2c1` [Example 519, 6-(((3-((3-chloroquinolin-6-yl)methyl)-[1,2,4]triazolo[4,3-a]pyridin-6-yl)amino)methyl)-5,7-dimethylisoquinolin-1-amine], with 100 to 1000 nM.
Then `Cc1cc2c(N)nccc2c(C)c1CNc1cc(OCc2cn3cc(C4CC4)cnc3n2)nc(C(=O)O)n1` [Example 488, 4-(((1-amino-5,7-dimethylisoquinolin-6-yl)methyl)amino)-6-((6-cyclopropylimidazo[1,2-a]pyrimidin-2-yl)methoxy)pyrimidine-2-carboxylic acid], with less than 1 nM.
Then `Cc1cc2c(N)nccc2c(C)c1CNc1cc(OCc2ccc(CN3CCOCC3=O)cc2)cnn1` [Example 434, 4-(4-(((6-(((1-amino-5,7-dimethylisoquinolin-6-yl)methyl)amino)pyridazin-4-yl)oxy)methyl)benzyl)morpholin-3-one], with less than 1 nM; and `Cc1cc2c(N)nccc2c(C)c1CNC(=O)c1cnn(Cc2ccc(CCn3ccccc3=O)cc2)c1` [Example 49, N-((1-amino-5,7-dimethylisoquinolin-6-yl)methyl)-1-(4-(2-(2-oxopyridin-1(2H)-yl)ethyl)benzyl)-1H-pyrazole-4-carboxamide], with 1 to 10 nM.
Turning to `Cc1cc2c(N)nccc2c(C)c1CNC(=O)c1cnn(Cc2ccc3cnccc3c2)c1` [Example 74, N-((1-amino-5,7-dimethylisoquinolin-6-yl)methyl)-1-(isoquinolin-6-ylmethyl)-1H-pyrazole-4-carboxamide], the EC50 was 1 to 10 nM.
Regarding `CC(=O)Nc1nccc2c(C)c(CNc3cc(OCc4ccc(Cn5cccn5)cc4)cnn3)c(C)cc12` [Example I-470, N-(6-(((5-((4-((1H-pyrazol-1-yl)methyl)benzyl)oxy)pyridazin-3-yl)amino)methyl)-5,7-dimethylisoquinolin-1-yl)acetamide], the EC50 was 10 to 100 nM.
Then `Cc1cc2c(N)nccc2c(C)c1CNC(=O)c1cnn(Cc2ccc3c(cnn3C)c2)c1` [Example 52, N-((1-amino-5,7-dimethylisoquinolin-6-yl)methyl)-1-((1-methyl-1H-indazol-5-yl)methyl)-1H-pyrazole-4-carboxamide], with 1 to 10 nM; and `Cc1cc2c(N)nccc2c(C)c1CNc1cc(NCc2ccc(Oc3ccccn3)cc2)ncn1` [Example 361, N^4-((1-amino-5,7-dimethylisoquinolin-6-yl)methyl)-N^6-(4-(pyridin-2-yloxy)benzyl)pyrimidine-4,6-diamine], with 1 to 10 nM; and `Cc1cc2c(N)nccc2c(C)c1CNc1cc(OCc2ccc(Cc3cccn4ccnc34)cc2)cnn1` [Example 444, 6-(((5-((4-(imidazo[1,2-a]pyridin-8-ylmethyl)benzyl)oxy)pyridazin-3-yl)amino)methyl)-5,7-dimethylisoquinolin-1-amine], with less than 1 nM.
Then `Cc1cc2c(N)nccc2c(C)c1CNc1nccc2c1nnn2Cc1cn2cc(C3CC3)ccc2n1` [Example 254, 6-(((1-((6-cyclopropylimidazo[1,2-a]pyridin-2-yl)methyl)-1H-[1,2,3]triazolo[4,5-c]pyridin-4-yl)amino)methyl)-5,7-dimethylisoquinolin-1-amine], with greater than 1000 nM.
Consider `COc1cccc2nc(Cn3cc(C(=O)NCc4c(C)cc5c(N)nccc5c4C)cn3)cn12` [Example 144, N-((1-amino-5,7-dimethylisoquinolin-6-yl)methyl)-1-((5-methoxyimidazo[1,2-a]pyridin-2-yl)methyl)-1H-pyrazole-4-carboxamide], for which the EC50 was less than 1 nM.
`Cc1cc2c(N)nccc2c(C)c1CNc1cc(CCc2ccc(Cn3cccn3)cc2)ncn1` [Example I-460, 6-((6-(4-((1H-pyrazol-1-yl)methyl)phenethyl)pyrimidin-4-ylamino)methyl)-5,7-dimethylisoquinolin-1-amine]: the concentration giving a half-maximal response (EC50) lay within 10 to 100 nM.
Then `Cc1cc2c(N)nccc2c(C)c1CNC(=O)c1cnn(Cc2cn3c(C)c(C)ccc3n2)c1` [Example 136, N-((1-amino-5,7-dimethylisoquinolin-6-yl)methyl)-1-((5,6-dimethylimidazo[1,2-a]pyridin-2-yl)methyl)-1H-pyrazole-4-carboxamide], with less than 1 nM.

For orientation: EC50 means the concentration needed to bring the measured effect to its halfway point.
